Read-outs that look alike come from different tables or passages of the source.
Experiments:
Assay type in all cases: biochemical
equine BChE (eqBChE) [1] = target: T1, equine BChE (eqBChE) (Equus caballus, UniProt P81908); test: Ellman's spectrophotometric method, percent inhibition of eqBChE (zero time and after 1 h incubation); conditions: for inhibition at 0.9 µM / inhibition at 9 µM: read-out: % Inhibition vs. eqBChE ± SD; for inhibition at 9 µM / % Inhibition vs. eqBChE ± SD: [I] 9 µM
T1 construct: purchased Sigma-Aldrich (Milan, Italy)
Procedure: (§1) Regarding the synthesized compounds enzymatic inhibition studies were carried out on Electrophorus electricus AChE (EeAChE) and equine BChE (eqBChE), according to Ellman’s spectrophotometric method.
(§2) All other chemical and biological reagents and solvents used were of the highest analytical, commercially available grade. The water, utilized for the preparation of the phosphate buffer and of the solutions of compounds, was distilled and filtered on nylon membrane filters with 0.2 μm pore size with the Millipore® Filtration apparatus before each use. Micropipettes Labmate (BRAND Dig. 10–100 μL; Dig. 100–1000 μL; Dig. 0.1–2 μL) and Transferpette (HIGH TECH LAB LM200: 20–200 μL; LM5000: 1000–5000 μL) were used to collect the samples. The assays were carried out by double beam UV–Vis Lambda 40 Perkin Elmer spectrophotometer, using optical polystyrene cuvettes (10 × 10 × 45 mm, 340–800 nm optical transparency), each measure was repeated at least in triplicate. […] Vivaspin® 2 Sartorius, with a membrane of 3000 MWCO (molecular weight cutoff) consisting of polyethersulfone (PES), cellulose triacetate (CTA) and hydrosart, was used for the ultrafiltration procedures. An ALC PK110 bench-top centrifuge was used for centrifugation. The spectrophotometric method of Ellman, with minor modifications, was used to evaluate the inhibition of cholinesterase enzymes. […] EeAChE and eqBChE were periodically tested to evaluate the effective enzymatic activity.
(§3) An amount of 3.0 mL of a solution in 0.1 M phosphate buffer (pH = 7.4) containing DTNB (0.25 mM) and EeAChE (0.083 UmL^−1) or eqBChE (0.083 UmL^−1) were placed in a polystyrene cuvette of 1.0 cm path length; 1 µL of a solution in DMSO of the tested compound was added to obtain in cuvette concentration range 9 µM–0.09 µM. With this solution the blank was made.
(§4) Each experiment was repeated at least in triplicate.
(§5) The cuvettes were prepared consecutively at intervals of 3 min to allow equal incubation times.

[2] = target: T2, Electrophorus electricus AChE (EeAChE) (Electrophorus electricus, UniProt O42275); test: Ellman's spectrophotometric method, percent inhibition of EeAChE (zero time and after 1 h incubation); conditions: for % Inhibition vs. EeAChE ± SD: [I] 9 µM; for inhibition at 0.9 µM: read-out: % Inhibition vs. EeAChE ± SD, [I] 900 nM
T2 construct: purchased Sigma-Aldrich (Milan, Italy)
Procedure: as §1, §2, §3, §4, §5

equine BChE (eqBChE) [3] = target: T1, equine BChE (eqBChE); test: Reversibility of inhibition vs. eqBChE (ultrafiltration and washing); conditions: for inhibition at 54 µM: carbaryl 54 µM
Procedure: Moreover, it was evaluated whether the inhibition mechanism of carbamate 18 towards eqBChE is reversible, irreversible or pseudo-irreversible. For this purpose, the percentages of inhibition were determined both after one hour of the incubation of compound 18 (5.4 µM) with eqBChE (1.25 U), both following the removal of the inhibitor and the washing of the enzyme, carried out through ultrafiltration devices for the concentration of biological samples [35, 36]. To validate the method, the same study was performed with carbaryl (54 µM), a known carbamoylating cholinesterase inhibitor.
After the incubation phase, the solution containing the inhibitor not bound to the enzyme was removed by centrifugation, retaining eqBChE on the membrane of the ultrafiltration devices. Then the enzyme was washed with phosphate buffer, to remove the bound inhibitor and to restore the enzyme activity.
Three solutions were prepared in 0.1 M phosphate buffer (pH = 7.4), containing eqBChE (0.50 UmL^−1), DTNB (0.3 mM) and acetylthiocholine (10 mM), respectively. A solution of compound 18 in DMSO (2.7 mM) was prepared. Then six Vivaspin® were used: • three were prepared with 2.5 mL of eqBChE solution (0.50 UmL^−1) and 5 µL of inhibitor solution; • three were prepared with 2.5 mL of eqBChE solution (0.50 UmL^−1) and 5 µL of DMSO.
The Vivaspin® thus prepared were incubated for 1 h at 25 °C. After this time the percentage of inhibition was determined following the Ellman method. The blank was recorded by taking 500 µL from the Vivaspin® and diluting them in the cuvette in 2.5 mL of DTNB solution (0.3 mM). The reaction was activated by adding 30 μL of acetylthiocholine solution (10 mM), so as to obtain a final concentration of 100 µM in the cuvette. The absorbance variation was measured between 0.5 and 1.5 min at 412 nm, repeating the measurement for each of the six Vivaspin®.
After this procedure the first centrifugation of the Vivaspin® was carried out for 60 min at 4000 rpm and subsequently the solutions that crossed the membrane and settled in the filtrate tube were removed. In this way the solutions present in the concentrator body were concentrated up to 100 µL. To these solutions 1 mL of 0.1 M phosphate buffer (pH = 7.4) was added and the second centrifugation was carried out for 30 min at 4000 rpm. The solutions present in the concentrator body were concentrated up to 200 µL. The second washing was carried out, adding 1 mL of buffer and centrifuging for 30 min at 4000 rpm. The solutions present in the concentrator body were concentrated up to 250 µL. A third wash was carried out adding 1 mL of buffer and centrifuging for 50 min at 4000 rpm. The solutions present in the concentrator body were concentrated up to 150 µL. At this point, to recover the concentrated solution, the filtrate tube was removed, the concentrator body was turned upside down and inserted inside the concentrate recovery cap. The Vivaspin® was centrifuged for 10 min at 4000 rpm. After this time the recovered solution was taken up with 3 mL of DTNB solution (0.3 mM) and transferred into the cuvette: blank was recorded. The reaction was activated when 30 µL of substrate solution (10 mM) were added so as to have a final concentration of 100 µM in the cuvette. The absorbance variation between 0.5 and 1.5 min was measured at 412 nm, repeating the measurement for each of the recovered solutions.
As a positive control carbaryl was used, for which the same procedure was followed, using a 27 mM carbaryl stock solution in DMSO.

[4] = [I] 900 nM, 0.0833 U/mL enzyme, 100 µM acetylthiocholine
[5] = 0.0833 U/mL enzyme, 100 µM acetylthiocholine
[6] = read-out: % Inhibition vs. EeAChE ± SD, [I] 9 µM, 0.0833 U/mL enzyme, 100 µM acetylthiocholine
[7] = 1 h, [I] = 900 nM, t = 1 h incubation at 25 °C
[8] = 1 h, read-out: % Inhibition vs. EeAChE ± SD, [I] = 9 µM, t = 1 h incubation at 25 °C

T1 sequence (P81908 whole entry): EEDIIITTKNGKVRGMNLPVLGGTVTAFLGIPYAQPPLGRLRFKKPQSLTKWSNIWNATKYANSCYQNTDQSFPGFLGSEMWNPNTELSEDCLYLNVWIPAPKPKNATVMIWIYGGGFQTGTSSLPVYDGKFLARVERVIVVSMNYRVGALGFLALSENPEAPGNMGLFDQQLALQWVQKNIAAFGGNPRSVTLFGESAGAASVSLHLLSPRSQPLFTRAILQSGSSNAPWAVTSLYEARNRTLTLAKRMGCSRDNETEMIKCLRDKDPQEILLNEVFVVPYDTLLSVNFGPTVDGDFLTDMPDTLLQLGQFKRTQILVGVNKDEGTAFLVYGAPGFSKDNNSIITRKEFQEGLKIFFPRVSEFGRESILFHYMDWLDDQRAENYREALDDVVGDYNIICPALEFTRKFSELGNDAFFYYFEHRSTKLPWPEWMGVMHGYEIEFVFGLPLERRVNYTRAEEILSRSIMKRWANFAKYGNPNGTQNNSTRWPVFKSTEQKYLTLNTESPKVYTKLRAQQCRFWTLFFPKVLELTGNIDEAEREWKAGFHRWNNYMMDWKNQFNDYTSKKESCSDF
T2 sequence (O42275 24-633): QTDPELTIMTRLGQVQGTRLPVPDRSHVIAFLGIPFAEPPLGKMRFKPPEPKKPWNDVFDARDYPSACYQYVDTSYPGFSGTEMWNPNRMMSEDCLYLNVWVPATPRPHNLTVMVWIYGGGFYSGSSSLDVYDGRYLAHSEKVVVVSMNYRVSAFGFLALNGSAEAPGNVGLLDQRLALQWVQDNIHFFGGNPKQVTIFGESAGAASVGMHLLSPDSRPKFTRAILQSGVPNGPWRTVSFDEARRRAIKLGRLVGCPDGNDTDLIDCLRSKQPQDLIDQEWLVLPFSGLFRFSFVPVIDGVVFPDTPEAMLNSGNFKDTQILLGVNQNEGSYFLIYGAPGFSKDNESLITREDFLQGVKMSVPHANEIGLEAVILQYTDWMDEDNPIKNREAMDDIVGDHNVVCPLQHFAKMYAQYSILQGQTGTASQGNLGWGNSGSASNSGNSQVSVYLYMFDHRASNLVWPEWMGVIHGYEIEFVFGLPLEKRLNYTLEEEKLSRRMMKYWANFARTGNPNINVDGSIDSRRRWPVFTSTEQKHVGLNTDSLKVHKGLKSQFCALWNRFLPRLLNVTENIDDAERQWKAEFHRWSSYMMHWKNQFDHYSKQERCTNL

Compound `O=C(C=Cc1ccccc1)NCCCCCCNc1ccccn1` [Compound 15, N-(6-(pyridin-2-ylamino)hexyl)cinnamamide] has an inhibition at 0.9 µM (equine BChE (eqBChE) [1]; [4]) of 31.5 ± 3.1%, an inhibition at 9 µM (equine BChE (eqBChE) [1]; [5]) of 64.7 ± 2.9% and an inhibition at 9 µM [2, 6] of 45.4 ± 2.5%.

With `O=C(C=Cc1ccccc1)NCCCCCCNc1ncccn1` [Compound 6, N-(6-(pyrimidin-2-ylamino)hexyl)cinnamamide] the “% Inhibition vs. eqBChE ± SD” value (equine BChE (eqBChE) [1]; [5]) was “ns ^c”, the “% Inhibition vs. EeAChE ± SD” value [2, 5] was “ns ^c” and the inhibition at 0.9 µM [2, 5] was 7 ± 1.6%.

`O=C(Cc1ccccc1)NCCCCCCNc1ccccn1` [Compound 13, 2-phenyl-N-(6-(pyridine-2-ylamino)hexyl)acetamide] was tested, and the inhibition at 0.9 µM (equine BChE (eqBChE) [1]; [4]) was 4.3 ± 5.6%, the inhibition at 9 µM (equine BChE (eqBChE) [1]; [5]) was 49.1 ± 3.2% and the inhibition at 9 µM [2, 6] was 46.7 ± 1.1%.

For `O=C(NCCCCCCNc1ncccn1)c1ccc(Br)cc1` [Compound 7, 4-bromo-N-(6-(pyrimidin-2-ylamino)hexyl)benzamide], the inhibition at 9 µM (equine BChE (eqBChE) [1]; [5]) was 7.4 ± 2% and the inhibition at 9 µM [2, 6] was 11.2 ± 5%.

`O=C(NCCCCCCNc1ncccn1)c1ccc(Cl)cc1` [Compound 8, 4-chloro-N-(6-(pyrimidin-2-ylamino)hexyl)benzamide] showed an inhibition at 9 µM (equine BChE (eqBChE) [1]; [5]) of 2.1 ± 3.5% and an inhibition at 9 µM [2, 6] of 9.9 ± 0.8%.

`O=C(NCCCCCCNc1ccccn1)OCc1ccccc1` [Compound 19, Benzyl (6-(pyridin-2-ylamino)hexyl)carbamate] gave an inhibition at 0.9 µM (equine BChE (eqBChE) [1]; [7]) of 32.4 ± 7.5% and an inhibition at 9 µM [2, 8] of 45.4 ± 2.7%.

With `O=C(NCCCCCCNc1ncccn1)c1ccccc1` [Compound 3, N-(6-(pyrimidin-2-ylamino)hexyl)benzamide] the inhibition at 9 µM (equine BChE (eqBChE) [1]; [5]) was roughly 9% and the inhibition at 9 µM [2, 6] was roughly 3%.

With `O=C(NCCCCCCNc1ncccn1)Oc1ccccc1` [Compound 16, Phenyl (6-(pyrimidin-2-ylamino)hexyl)carbamate] the inhibition at 0.9 µM (equine BChE (eqBChE) [1]; [7]) was 66.4 ± 5.9% and the inhibition at 9 µM [2, 8] was 7.2 ± 0.8%.

`O=C(NCCCCCCNc1ncccn1)c1cc2ccccc2[nH]1` [Compound 11, N-(6-(pyrimidin-2-ylamino)hexyl)-1H-indole-2-carboxamide] was tested, and the inhibition at 0.9 µM (equine BChE (eqBChE) [1]; [4]) was 14.1 ± 4.7%, the “% Inhibition vs. eqBChE ± SD” value (equine BChE (eqBChE) [1]; [5]) was “ns ^c” and the “% Inhibition vs. EeAChE ± SD” value [2, 5] was “ns ^c”. For the same compound, the inhibition at 0.9 µM [2, 5] was 5.5 ± 1.4%.

`CNC(=O)Oc1cccc2ccccc12` [carbaryl, reference compound] was tested, and the inhibition at 54 µM (equine BChE (eqBChE) [3]; after ultrafiltration and washing with phosphate buffer, read-out: percentage of inhibition of eqBChE after removal of inhibitor and washing of the enzyme) was 29.9%, the inhibition at 54 µM (equine BChE (eqBChE) [3]; before washing, read-out: percentage of inhibition of eqBChE after one hour of incubation) was 97.4% and the “inhibition mechanism towards eqBChE (reversible, irreversible or pseudo-irreversible)” value (equine BChE (eqBChE) [3]; from restoration of enzymatic activity after washing) was “pseudo-irreversible”.

`O=C(Cc1ccc(Oc2ccccc2)cc1)NCCCCCCNc1ncccn1` [Compound 5, 2-(4-phenoxyphenyl)-N-(6-(pyrimidin-2-ylamino)hexyl)acetamide] was tested, and the inhibition at 9 µM (equine BChE (eqBChE) [1]; [5]) was 16.6 ± 5.5% and the inhibition at 9 µM [2, 6] was 10.8 ± 2.7%.

With `O=C(Cc1ccccc1)NCCCCCCNc1ncccn1` [Compound 4, 2-phenyl-N-(6-(pyrimidin-2-ylamino)hexyl)acetamide] the inhibition at 9 µM (equine BChE (eqBChE) [1]; [5]) was 5.1 ± 4.7% and the inhibition at 9 µM [2, 6] was 5 ± 4.4%.

`COc1ccccc1C(=O)NCCCCCCNc1ncccn1` [Compound 9, 2-methoxy-N-(6-(pyrimidin-2-ylamino)hexyl)benzamide] showed an inhibition at 9 µM (equine BChE (eqBChE) [1]; [5]) of 9.3 ± 2.4% and an inhibition at 9 µM [2, 6] of 7.2 ± 0.8%.

With `O=C(NCCCCCCNc1ncccn1)OCc1ccccc1` [Compound 17, Benzyl (6-(pyrimidin-2-ylamino)hexyl)carbamate] the inhibition at 0.9 µM (equine BChE (eqBChE) [1]; [7]) was 13.3 ± 3.9% and the inhibition at 9 µM [2, 8] was 10.9 ± 1.4%.
